In PubChem BioAssay (NCI) one finds TGI and GI50 data, which are given here for 13 compounds.

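Exposure lasted 48 hours, with cells grown in 96-well plates and compounds tested at five concentrations. The concentration for 50% growth inhibition is given as GI50. TGI: concentration producing complete growth inhibition.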 Bounds are passed on as bounds.

Test systems include SF-268 CNS; IGROV1 ovarian; UO-31 renal; M14 melanoma; OVCAR-3 ovarian; KM20L2 colon; SNB-78 CNS; LXFL 529 NSCLC; M19-MEL melanoma; CCRF-CEM leukemia; DMS 114 small cell lung; SNB-19 CNS; HOP-18 NSCLC; DLD-1 colon; A498 renal.
Common to all, as to assay: inhibition of tumour cell growth, NCI panel, 48 h

With `O=C1CCN(CCC(F)(F)C(F)(F)C(F)(F)C(F)(F)F)C(=S)N1`, the TGI with SF-268 CNS, in the assay on IGROV1 ovarian, in the assay on UO-31 renal, in the assay on M14 melanoma, with OVCAR-3 ovarian and in the assay on KM20L2 colon was more than 100 µM throughout. Further, the TGI in the assay on SNB-78 CNS, in the assay on LXFL 529 NSCLC, in the assay on M19-MEL melanoma, with CCRF-CEM leukemia, in the assay with DMS 114 small cell lung and in the assay on SNB-19 CNS was more than 100 µM in each case.

`CCOC(=O)C(CC(C)C)NC(=O)C(N)Cc1ccc(N(CCCl)CCCl)cc1` (stereo not drawn): the TGI is 16.8 µM in the assay on SF-268 CNS; 31.6 µM with IGROV1 ovarian; 5.97 µM in the assay with UO-31 renal; 11.7 µM in the assay on M14 melanoma; 16.1 µM in the assay with HOP-18 NSCLC; 4.72 µM in the assay with OVCAR-3 ovarian. The TGI was found to be 13.5 µM in the assay on KM20L2 colon; 8.29 µM with LXFL 529 NSCLC; 8.27 µM in the assay with DLD-1 colon; 30.9 µM in the assay on A498 renal; 4.57 µM with M19-MEL melanoma; 13 µM in the assay on CCRF-CEM leukemia. The values for the TGI with DMS 114 small cell lung and in the assay with SNB-19 CNS were 7.54 µM and 35.5 µM, respectively.

With `Cc1cc2c(=O)c3ccc(Cl)cc3[nH]c2c(C(=O)O)c1C`, the TGI in the assay on SF-268 CNS, in the assay on IGROV1 ovarian, with UO-31 renal, with M14 melanoma, in the assay with HOP-18 NSCLC and in the assay on OVCAR-3 ovarian was more than 100 µM throughout. The TGI in the assay on KM20L2 colon, in the assay with SNB-78 CNS, in the assay with LXFL 529 NSCLC, in the assay on DLD-1 colon, with M19-MEL melanoma and in the assay with CCRF-CEM leukemia was more than 100 µM throughout. Also, the TGI in the assay on DMS 114 small cell lung and with SNB-19 CNS was more than 100 µM throughout.

On to `COc1ccc(-c2cc(=O)c3cc4c(cc3[nH]2)OCO4)c(OC)c1`, for which the GI50 in the assay with SF-268 CNS was 62.6 µM; in the assay on OVCAR-3 ovarian, more than 100 µM; in the assay with KM20L2 colon, 42.7 µM; in the assay on DMS 114 small cell lung, 26.1 µM. The TGI in the assay with SF-268 CNS, in the assay with IGROV1 ovarian, with UO-31 renal, in the assay on M14 melanoma, in the assay on HOP-18 NSCLC and in the assay on OVCAR-3 ovarian was more than 100 µM each time. In addition, the TGI with KM20L2 colon, in the assay with SNB-78 CNS, in the assay on LXFL 529 NSCLC, with DLD-1 colon, in the assay with M19-MEL melanoma and with CCRF-CEM leukemia was more than 100 µM in each case. In addition, the figures for the TGI with DMS 114 small cell lung and in the assay with SNB-19 CNS were 87.3 µM and more than 100 µM, respectively.

As to `O=C(CC(O)(C(F)(F)Cl)C(F)(F)Cl)CC(O)(C(F)(F)Cl)C(F)(F)Cl`, the TGI in the assay with SF-268 CNS is more than 10 µM; in the assay on IGROV1 ovarian, more than 10 µM; in the assay on UO-31 renal, more than 10 µM; with M14 melanoma, more than 10 µM; with OVCAR-3 ovarian, more than 10 µM; in the assay with A498 renal it was 7.74 µM. Moreover, the TGI in the assay with CCRF-CEM leukemia and with SNB-19 CNS was more than 10 µM each time.

Turning to `COc1cc(/C=C2\N=C(c3ccccc3)N(c3ccc4c(c3)Sc3cc(N5C(=O)/C(=C/c6cc(OC)c(OC)c(OC)c6)N=C5c5ccccc5)ccc3N4)C2=O)cc(OC)c1OC`, the TGI in the assay on SF-268 CNS was 37.5 µM; in the assay with IGROV1 ovarian it was 32 µM; in the assay with UO-31 renal, more than 100 µM; in the assay with M14 melanoma, 80.8 µM; in the assay with OVCAR-3 ovarian it was 40.7 µM; in the assay on A498 renal, 43.1 µM. The TGI in the assay with CCRF-CEM leukemia came out at 57.3 µM; in the assay with SNB-19 CNS, 39.8 µM.

Turning to `CO[C@@H]1C[C@H]2[C@@H]3CC[C@H]([C@@H](C)COC(C)=O)[C@@]3(C)CC[C@@H]2[C@@]2(C)CC[C@H]3C[C@]312`, the TGI in the assay on SF-268 CNS stood at 40.6 µM; in the assay with IGROV1 ovarian it was 30.2 µM; with UO-31 renal it was 32.4 µM; in the assay on M14 melanoma, 38 µM; in the assay with OVCAR-3 ovarian it was 27.7 µM; in the assay with A498 renal, 35.6 µM. Besides, the TGI in the assay on CCRF-CEM leukemia is 40.7 µM; in the assay on SNB-19 CNS, 31.7 µM.

With `COc1ccc2cc(NC(=O)Nn3cnnc3)ccc2c1`, the TGI with SF-268 CNS, in the assay with IGROV1 ovarian, with UO-31 renal, with M14 melanoma, with OVCAR-3 ovarian and in the assay on A498 renal was more than 100 µM in each case. In addition, the TGI with CCRF-CEM leukemia and with SNB-19 CNS was more than 100 µM in each case.

With `Nc1ccc(N=Nc2ccc(-c3ccc(N=Nc4c(S(=O)(=O)O)cc5cc(S(=O)(=O)O)c(N=Nc6ccc([N+](=O)[O-])cc6)c(N)c5c4O)cc3)cc2)c2cc(S(=O)(=O)O)ccc12`, the TGI in the assay with SF-268 CNS, in the assay with IGROV1 ovarian, in the assay on UO-31 renal, in the assay on M14 melanoma, in the assay with OVCAR-3 ovarian and in the assay with KM20L2 colon was more than 100 µM in each case. In addition, the TGI with SNB-78 CNS, in the assay with LXFL 529 NSCLC, with DLD-1 colon, with A498 renal, in the assay with M19-MEL melanoma and with CCRF-CEM leukemia was more than 100 µM each time. In the assay on SNB-19 CNS, this compound returned a TGI of more than 100 µM.

Consider `CC1(C)CCCCC1/C=C/C(CC(O)(C(F)(F)F)C(F)(F)F)=N\Nc1ccc([N+](=O)[O-])cc1[N+](=O)[O-]` (stereo not drawn), for which the TGI with SF-268 CNS was found to be 3 µM; in the assay on IGROV1 ovarian it was 15.8 µM; in the assay with UO-31 renal it was 4.15 µM; in the assay on M14 melanoma it was 17.2 µM; with OVCAR-3 ovarian, 14.5 µM; in the assay with A498 renal, 6.96 µM. For the same compound, the TGI in the assay on CCRF-CEM leukemia was 4.91 µM; in the assay with SNB-19 CNS, 19 µM.

Turning to `CC1=N/C(=C\c2ccc(N)cc2)C(=O)N1Nc1nnc(NN2C(=O)/C(=C/c3ccc(N)cc3)N=C2C)c2ccccc12`, the TGI in the assay with SF-268 CNS, in the assay on IGROV1 ovarian, in the assay with M14 melanoma, in the assay on HOP-18 NSCLC, with KM20L2 colon and in the assay on LXFL 529 NSCLC was more than 100 µM throughout. In addition, the TGI in the assay on DLD-1 colon, in the assay with A498 renal, in the assay on M19-MEL melanoma, with CCRF-CEM leukemia and in the assay on SNB-19 CNS was more than 100 µM each time.

Regarding `C=CC(Br)(CBr)CCC1OC1(C)C` (stereo not drawn), the TGI in the assay on SF-268 CNS was 31.2 µM; with IGROV1 ovarian, 26.7 µM; in the assay with UO-31 renal, 32.8 µM; in the assay with M14 melanoma, 29 µM; in the assay with OVCAR-3 ovarian, 36.8 µM; in the assay on A498 renal, 40.2 µM. In addition, the TGI in the assay with CCRF-CEM leukemia was more than 100 µM; in the assay with SNB-19 CNS it was 32.7 µM.

On to `N[C@@H]1c2c(Br)sc(Br)c2C(=O)[C@H]1Br`, for which the TGI with SF-268 CNS is more than 100 µM; in the assay on IGROV1 ovarian, 45.9 µM; in the assay on UO-31 renal, 55.6 µM; with M14 melanoma, 50.9 µM; with OVCAR-3 ovarian, more than 89.8 µM; with A498 renal it was more than 69.9 µM. The TGI in the assay on CCRF-CEM leukemia was more than 22.6 µM; in the assay with SNB-19 CNS, more than 74.6 µM.
